Assay results as given in US5202348A, “Thiarubrine antifungal agents” (The University of British Columbia, priority 1990, dated 1993).
≈ marks a conversion by molar mass, not a printed value. Like-named read-outs stand apart in the source and are kept apart here.

Key:
C. albicans [1] = experiment: Growth inhibition of C. albicans during 24 hours exposure; format: cell-based, Candida albicans; details: Candida albicans; 24 hours exposure; Table 3; read-out: Minimal concentration causing 100% growth inhibition
Pseudomonas aeruginosa = experiment: Minimal inhibitory concentration, agar dilution method; format: cell-based
Method: (§1) Results were obtained by agar dilution method. Mueller Hinton agar plates (pH - 7.4) with different doses of ThD were inoculated with 10^4 cfu/spot and incubated 21 hours at 34°. MIC is the lowest concentration with no growth.

Serratia marscenes = experiment: as above; format: cell-based; details: 21 h, No. 27, strain 3A3
Method: as §1

Enterobacter cloacoe = experiment: as above; format: cell-based
Method: as §1

Streptococcus faecalis = experiment: as above; format: cell-based; details: Enterococcus faecalis, ATCC29212, 21 h; No. 2, ATCC 29212
Method: as §1

Klebsiella pneumoniae = experiment: as above; format: cell-based; details: ATCC33495, 21 h, No. 7, ATCC 33495
Method: as §1

Staphylococcus aureus = experiment: as above; format: cell-based; details: for MIC: Staphylococcus aureus, read-out: Minimal Inhibitory Concentration
Method: as §1

Candida pseudotropicalis = experiment: as above; format: cell-based; details: Kluyveromyces marxianus, 21 h; No. 10
Method: as §1

Listeria monocytogenes = experiment: as above; format: cell-based
Method: as §1

Klebsiella sp. = experiment: as above; format: cell-based; details: 21 h, No. 31
Method: as §1

Candida = experiment: as above; format: cell-based; details: 21 h
Method: as §1

Aspergillus [2] = experiment: as above; format: cell-based; details: 21 h
Method: as §1

[3] = system: Enterococcus (gentamycin res.); experiment: as above; format: cell-based; details: 21 h, read-out: Minimal Inhibitory Concentration
Method: as §1

Acinetobacter = experiment: as above; format: cell-based
Method: as §1

Zanthomonas maltophilia = experiment: as above; format: cell-based; details: 21 h; No. 15, strain 3E6
Method: as §1

Escherichia coli = experiment: as above; format: cell-based; details: ATCC25992, 21 h, read-out: Minimal Inhibitory Concentration
Method: as §1

Enterobacter aerogenes = experiment: as above; format: cell-based; details: Klebsiella aerogenes, ATCC35029, 21 h; No. 6, ATCC 35029
Method: as §1

Enterococcus faecalis = experiment: as above; format: cell-based; details: 21 h
Method: as §1

Staphylococcus epidermis = experiment: as above; format: cell-based; details: ATCC29972, 21 h, No. 8, ATCC 29972
Method: as §1

Enterobacter sp. = experiment: as above; format: cell-based; details: 21 h, No. 26, strain 9E7
Method: as §1

Cryptococcus neoformans = experiment: as above; format: cell-based; details: 21 h, No. 9, F548
Method: as §1

C. albicans [4] = experiment: Degradation of ThD under exposure to bench cool white light (LC50 on C. albicans); format: cell-based; details: Candida albicans
Description: (§2) Data on degradation of Thiarubrine D (ThD) expressed as changes of concentration required to inhibit growth of C. albicans in 50% during 24 hrs. exposure (Lc50 24 hrs.).

C. albicans [5] = experiment: Influence of exposure of ThD for two hrs. to different pH (LC50 on C. albicans); format: cell-based; details: Candida albicans, two hrs. in sodium phosphate buffer
Description: as §2

P815 = experiment: Growth inhibition of P815 mastocytoma during 24 hours exposure; format: cell-based, Mouse; details: Mus musculus, P815, 24 hours exposure
Method: (§3) P815 = Mouse mastocytoma […]
(§4) a logarithmic scale and percent of growth inhibition for 24 hours exposur
(§5) on a probability scale.

[6] = as above; format: cell-based, Mouse; details: mouse, p815 cells
Method: as §3, §4, §5

C. albicans [7] = experiment: Changes in LC50 on addition of fetal bovine serum to Saboraud dextrose medium; format: cell-based; details: Candida albicans
Description: as §2

[8] = Stability / decomposition of thiarubrines; details: under light
Aspergillus [9] = experiment: Anti-Aspergillus activity (summary); format: cell-based; details: Table 14;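 also: Letter grades where Y means active and y means less active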
C. albicans [10] = experiment: Growth inhibition of C. albicans during 24 hours exposure; format: cell-based, Candida albicans; details: Candida albicans, 24 hours exposure
Method: Doses inhibiting growth in 50% were estimated by plotting concentration o
as §4, §5

Aspergillus fumigatus = experiment: Sensitivity of Aspergillus fumigatus, agar diffusion method; format: cell-based; details: disc diameter 6 mm, read-out: Zone of Growth Inhibition
Description: Results were obtained by agar diffusion method. Disc diameter - 6 mm. -* = no zone over disc diameter.

[11] = Table 1, read-out: Concentration causing 50% growth inhibition
[12] = Table 4, read-out: Minimal concentration causing 50% growth inhibition

CC#CC1=CC=C(C#CC#CC2CO2)SS1 (stereo not drawn) [Thiarubrine D]
MIC (C. albicans [1]): 0.0024 µg/mL (≈ 0.00982 µM) | MIC (Pseudomonas aeruginosa; 21 h, No. 12, strain 141): > 10 µg/mL | MIC (Pseudomonas aeruginosa; 21 h, No. 13, strain 205): > 10 µg/mL | MIC (Pseudomonas aeruginosa; 21 h, No. 14, strain 3E5): 10 µg/mL (≈ 40.9 µM) | MIC (Pseudomonas aeruginosa; ATCC27853, 21 h, No. 4, ATCC 27853): 10 µg/mL (≈ 40.9 µM) | MIC (Serratia marscenes): 10 µg/mL (≈ 40.9 µM) | MIC (Enterobacter cloacoe; Enterobacter, 21 h, No. 19, strain 1A5): 1 µg/mL (≈ 4.09 µM) | Minimal Inhibitory Concentration (Enterobacter cloacoe; No. 20, strain 9E5): 1,000 ng/ml | MIC (Streptococcus faecalis): 10 µg/mL (≈ 40.9 µM) | MIC (Klebsiella pneumoniae): 10 µg/mL (≈ 40.9 µM) | Minimal Inhibitory Concentration (Staphylococcus aureus; No. 16, strain B4287 (metacylliu res.)): 10,000 ng/ml | MIC (Staphylococcus aureus; 21 h): 10 µg/mL (≈ 40.9 µM) | MIC (Staphylococcus aureus; ATCC25923, 21 h, No. 1, ATCC 25923): 10 µg/mL (≈ 40.9 µM) | MIC (Staphylococcus aureus; ATCC29213, 21 h, No. 5, ATCC 29213): 10 µg/mL (≈ 40.9 µM) | MIC (Candida pseudotropicalis): 10 µg/mL (≈ 40.9 µM) | MIC (Listeria monocytogenes; Listeria monocytogenes, 21 h, No. 28, strain 106): 10 µg/mL (≈ 40.9 µM) | Minimal Inhibitory Concentration (Listeria monocytogenes; No. 29, strain 301): 10,000 ng/ml | MIC (Klebsiella sp.): 1 µg/mL (≈ 4.09 µM) | MIC (Candida; No. 22, strain 01): 0.016 µg/mL (≈ 0.0655 µM) | MIC (Candida; No. 23, strain 02): 0.016 µg/mL (≈ 0.0655 µM) | MIC (Candida; No. 24, strain 03): 0.064 µg/mL (≈ 0.262 µM) | MIC (Candida; No. 25, strain R4197): 0.016 µg/mL (≈ 0.0655 µM) | MIC (Candida; No. 32, strain F617): 0.008 µg/mL (≈ 0.0327 µM) | MIC (Aspergillus [2]; No. 21, strain 05): 0.032 µg/mL (≈ 0.131 µM) | MIC (Aspergillus [2]; No. 34, strain F604): 0.064 µg/mL (≈ 0.262 µM) | MIC [3]: 0.01 µg/mL (≈ 0.0409 µM) | MIC (Acinetobacter; Acinetobacter, 21 h, No. 17, strain C42): 1 µg/mL (≈ 4.09 µM) | Minimal Inhibitory Concentration (Acinetobacter; No. 18, strain 6C10): 1,000 ng/ml | MIC (Zanthomonas maltophilia): 10 µg/mL (≈ 40.9 µM) | MIC (Escherichia coli): 1 µg/mL (≈ 4.09 µM) | MIC (Enterobacter aerogenes): 10 µg/mL (≈ 40.9 µM) | MIC (Enterococcus faecalis; No. 30, strain 1A3): 10 µg/mL (≈ 40.9 µM) | MIC (Enterococcus faecalis; No. 35, strain 207): 1 µg/mL (≈ 4.09 µM) | MIC (Staphylococcus epidermis): 10 µg/mL (≈ 40.9 µM) | MIC (Enterobacter sp.): 10 µg/mL (≈ 40.9 µM) | MIC (Cryptococcus neoformans): 0.064 µg/mL (≈ 0.262 µM) | IC50 (C. albicans [4]; 0 mins. exposure to bench cool white light, read-out: LC50 (24 hrs.)): 0.007 µg/mL (≈ 0.0286 µM) | IC50 (C. albicans [4]; 5 mins. exposure to bench cool white light, read-out: LC50 (24 hrs.)): 0.012 µg/mL (≈ 0.0491 µM) | IC50 (C. albicans [4]; 15 mins. exposure to bench cool white light, read-out: LC50 (24 hrs.)): 0.026 µg/mL (≈ 0.106 µM) | IC50 (C. albicans [4]; 0.5 hrs. exposure to bench cool white light, read-out: LC50 (24 hrs.)): 0.14 µg/mL (≈ 0.573 µM) | IC50 (C. albicans [4]; 24 h, read-out: LC50 (24 hrs.), 24 hrs. exposure to bench cool white light): 5 µg/mL (≈ 20.5 µM) | IC50 (C. albicans [4]; read-out: LC50 (24 hrs.), 6 hrs. exposure to bench cool white light): 5 µg/mL (≈ 20.5 µM) | IC50 (C. albicans [5]; pH 5): 0.04 µg/mL (≈ 0.164 µM) | IC50 (C. albicans [5]; pH 6): 0.034 µg/mL (≈ 0.139 µM) | IC50 (C. albicans [5]; pH 7): 0.02 µg/mL (≈ 0.0819 µM) | IC50 (C. albicans [5]; pH 8): 0.052 µg/mL (≈ 0.213 µM) | IC50 (P815; [11]): 0.12 µg/mL (≈ 0.491 µM) | IC100 (P815; Table 3, read-out: Minimal concentration causing 100% growth inhibition): 1.25 µg/mL | IC50 (P815; [12]): 0.12 µg/mL (≈ 0.491 µM) | selectivity ratio at 24 h ([6]; 50% growth inhibition, Table 4, read-out: Ratio of concentration needed to inhibit growth in 50%, P815 vs C. albicans): 200 | selectivity ratio at 24 h ([6]; 100% growth inhibition, Table 3, read-out: Ratio of minimal concentration causing 100% growth inhibition, P815 line vs C. albicans): ~500 | selectivity ratio at 24 h ([6]; Table 2, read-out: Toxicity Index, LC50 P815 / LC50 C. albicans): 200 | IC50 (C. albicans [7]; SAB): 0.007 µg/mL (≈ 0.0286 µM) | IC50 (C. albicans [7]; SAB + 5% FBS): 0.014 µg/mL | IC50 (C. albicans [7]; SAB + 10% FBS): 0.016 µg/mL | Light sensitivity [8]: light sensitive and breaks down under light to the corresponding thiophene | Anti-Aspergillus (Aspergillus [9]): Y | IC50 (C. albicans [10]; [11]): 0.0006 µg/mL (≈ 0.00246 µM) | IC50 (C. albicans [10]; [12]): 0.0006 µg/mL (≈ 0.00246 µM) | zone of inhibition at 0.01 µg/disc (Aspergillus fumigatus; 10 ng/disc): 14 mm | zone of inhibition at 0.1 µg/disc (Aspergillus fumigatus; 100 ng/disc): 23 mm | zone of inhibition at 1 µg/disc (Aspergillus fumigatus; 1,000 ng/disc): 26 mm | zone of inhibition at 10 µg/disc (Aspergillus fumigatus; 10,000 ng/disc): 32 mm
